These are literature values, as cited in patent publication US8177778B2, “System and method for stabilizing corneal tissue after treatment” (Avedro, Inc., priority 2009, dated 2012).

The series concerns corneal wound healing. The following applies: rabbits after excimer laser PRK ablation, M6P drop vs control drop.

In the case of `O=C[C@@H](O)[C@@H](O)[C@H](O)[C@H](O)COP(=O)(O)O` [M6P, Mannose 6-phosphate], the subepithelial collagen entry was “less subepithelial collagen”. Where the note is “at 4 weeks”, the corneal haze result was “significant reduction in corneal haze”.
